The results in this text go back to ChEMBL document CHEMBL3396990, “Development of 1,3-diphenyladamantane derivatives as nonsteroidal progesterone receptor antagonists” (Bioorg Med Chem, 2015).

Active and inactive are the calls of the source. No cut-off for these calls is given here.

The target in assay [1] is T1, Progesterone receptor (Homo sapiens) (UniProt P06401).
T1 sequence (whole entry): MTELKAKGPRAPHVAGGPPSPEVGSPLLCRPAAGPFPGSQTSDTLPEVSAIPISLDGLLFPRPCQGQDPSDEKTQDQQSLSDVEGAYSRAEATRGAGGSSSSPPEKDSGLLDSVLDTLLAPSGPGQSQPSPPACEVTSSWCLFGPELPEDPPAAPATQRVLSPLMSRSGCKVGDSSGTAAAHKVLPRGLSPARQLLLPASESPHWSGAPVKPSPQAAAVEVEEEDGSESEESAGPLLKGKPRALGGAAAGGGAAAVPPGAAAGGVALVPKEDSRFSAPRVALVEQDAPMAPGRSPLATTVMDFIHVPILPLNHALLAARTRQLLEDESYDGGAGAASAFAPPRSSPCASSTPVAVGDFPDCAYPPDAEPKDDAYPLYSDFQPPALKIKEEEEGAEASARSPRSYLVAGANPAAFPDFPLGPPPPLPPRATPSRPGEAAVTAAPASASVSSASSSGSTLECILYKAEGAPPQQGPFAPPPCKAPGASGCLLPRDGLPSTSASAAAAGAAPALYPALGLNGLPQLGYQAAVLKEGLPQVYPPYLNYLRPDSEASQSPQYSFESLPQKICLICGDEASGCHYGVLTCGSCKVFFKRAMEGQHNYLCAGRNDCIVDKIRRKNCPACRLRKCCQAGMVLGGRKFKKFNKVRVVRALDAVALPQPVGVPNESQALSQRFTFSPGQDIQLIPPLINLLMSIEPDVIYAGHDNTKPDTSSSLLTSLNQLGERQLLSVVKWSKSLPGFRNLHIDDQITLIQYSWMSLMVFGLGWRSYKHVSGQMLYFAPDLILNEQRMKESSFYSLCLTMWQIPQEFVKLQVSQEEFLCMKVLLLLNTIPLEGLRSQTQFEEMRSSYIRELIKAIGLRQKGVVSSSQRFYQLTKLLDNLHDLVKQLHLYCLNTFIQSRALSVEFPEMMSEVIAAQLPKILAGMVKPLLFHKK
The experiment in a line: Agonist activity at PR in human T47D cells assessed as induction of alkaline phosphatase expression after 24 hrs by plate reader analysis. In kind it is cell-based.

Assay [2] addresses T2, Progesterone receptor (Homo sapiens, UniProt P06401).
T2 sequence (P06401 whole entry): T1 sequence (whole entry)
The experiment in a line: Antagonist activity at PR in human T47D cells assessed as inhibition of progesterone-inducted alkaline phosphatase expression after 24 hrs by plate reader analysis. In kind it is cell-based.

Assay [3] deals with T2, Progesterone receptor. The experiment in a line: Displacement of [1,2,6,7-3H]progesterone from human recombinant PR LBD after 24 hrs by liquid scintillation counting analysis.

In the case of `CC(=O)Nc1ccc(C23CC4CC(CC(c5ccc(C#N)cc5)(C4)C2)C3)cc1`, the outcome in assay [1] was inactive. Further, at Progesterone receptor [2], the IC50 was 58.4 nM.

As for `N#Cc1ccc(C23CC4CC(C2)CC(c2ccc(N(Cc5ccccc5)Cc5ccccc5)cc2)(C4)C3)cc1`, the result in assay [1] was inactive. For the same compound, the IC50 at Progesterone receptor [2] was above 1000 nM.

Take `CS(=O)(=O)Nc1ccc(C23CC4CC(CC(c5ccc(C#N)cc5)(C4)C2)C3)cc1`: in assay [1], the outcome was inactive. For the same compound, the IC50 at Progesterone receptor [2] came out at 119 nM.

For the compound `COC(=O)Nc1ccc(C23CC4CC(CC(c5ccc(C#N)cc5)(C4)C2)C3)cc1`, in assay [1], the result was inactive. The IC50 on Progesterone receptor [2] is 25 nM; at Progesterone receptor [3], above 10000 nM.

With `CN(c1ccc(C23CC4CC(CC(c5ccc(C#N)cc5)(C4)C2)C3)cc1)S(C)(=O)=O`, in assay [1], the outcome was inactive. In addition, on Progesterone receptor [2], the IC50 worked out at 74 nM.

On to `COC(=O)N(C)c1ccc(C23CC4CC(CC(c5ccc(C#N)cc5)(C4)C2)C3)cc1`, for which, in assay [1], the outcome was inactive. For the same compound, on Progesterone receptor [2], the IC50 was determined as 36.2 nM.

Regarding `CCN(C(C)=O)c1ccc(C23CC4CC(CC(c5ccc(C#N)cc5)(C4)C2)C3)cc1`, the result in assay [1] was inactive. In addition, the IC50 on Progesterone receptor [2] was found to be 39.5 nM.

For the compound `CCCCCC(=O)N(C)c1ccc(C23CC4CC(CC(c5ccc(C#N)cc5)(C4)C2)C3)cc1`, the result in assay [1] was inactive. The IC50 at Progesterone receptor [2] stood at 125 nM.

In the case of `CN(C(=O)c1ccccc1)c1ccc(C23CC4CC(CC(c5ccc(C#N)cc5)(C4)C2)C3)cc1`, the result in assay [1] was inactive. Further, the IC50 on Progesterone receptor [2] stood at 311 nM; on Progesterone receptor [3] it was 228 nM.

Take `CC(=O)N(C)c1ccc(C23CC4CC(CC(c5ccc(C#N)cc5)(C4)C2)C3)cc1`: the outcome in assay [1] was inactive. For the same compound, the IC50 at Progesterone receptor [2] stood at 25.8 nM; on Progesterone receptor [3], 53 nM.

Regarding `N#Cc1ccc(C23CC4CC(CC(c5ccc(N)cc5)(C4)C2)C3)cc1`, the outcome in assay [1] was inactive. For the same compound, the IC50 at Progesterone receptor [2] amounted to 178 nM.

On to `N#Cc1ccc(C23CC4CC(C2)CC(c2ccc(NC(=O)c5ccccc5)cc2)(C4)C3)cc1`, for which the outcome in assay [1] was inactive. Further, the IC50 on Progesterone receptor [2] came out at 404 nM.

Take `N#Cc1ccc(C23CC4CC(C2)CC(c2ccc([N+](=O)[O-])cc2)(C4)C3)cc1`: the result in assay [1] was inactive. In addition, the IC50 at Progesterone receptor [2] stood at 53 nM.

In the case of `CCCCCC(=O)Nc1ccc(C23CC4CC(CC(c5ccc(C#N)cc5)(C4)C2)C3)cc1`, in assay [1], the outcome was inactive. Besides, the IC50 at Progesterone receptor [2] amounted to 174 nM.

The term IC50 denotes the concentration needed to halve the response being measured.
